# In the METLIN SMRT retention time set (Domingo-Almenara et al. 2019):
# Experiment: gradient 5% acetonitrile 3 min, to 50% in 2 min, to 85% in 15 min, held 3 min, 100 µL/min
# Conditions: column: Zorbax Extend-C18 2.1 x 50 mm; eluents: water / acetonitrile, 0.1% formic acid
# Summary of the method: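 The mobile phases were water and acetonitrile, each with 0.1% formic acid, pumped at 100 μL/min through a Zorbax Extend-C18 column (2.1 × 50 mm, 1.8 μm). Pure standards were injected as mixtures of ~100 molecules and detected by a quadrupole time-of-flight mass spectrometer in positive and negative ionization mode. Retention time came from computationally picked adduct peaks, each inspected by hand.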
row,RP-LC retention time [s],SMILES
1,672,CC(C)Cn1c(CC2CCN(C(=O)COc3ccccc3)C2)nc2cccnc21 (configuration not stated)
2,820,O=C(c1cccc(Cl)c1)N1CCC2(C1)NC(=O)N(Cc1ccc(F)cc1)C2=O (configuration not stated)
3,775,COC(=O)c1cc(OCC(=O)Nc2ccc(OC)cc2)c2cc(OC)ccc2n1
4,1060,CC(C)c1ccc(S(=O)(=O)N2CCC(n3c(-c4ccco4)nc4cccnc43)C2)cc1 (configuration not stated)
5,546,O=C(NC1CC1)C1CCN(C(=O)c2cc(-c3ccncc3)n[nH]2)CC1
6,635,O=C(Cc1nc(-c2ccccn2)n[nH]1)Nc1cccc(F)c1
7,1090,O=c1ccc(-c2nc(-c3ccc(F)cc3)no2)nn1Cc1cccc(F)c1
8,1140,Cc1ccccc1N1CCN(S(=O)(=O)c2cc(-c3nnc(C4CCC4)o3)co2)CC1
9,815,O=C(NCC1CCCO1)c1cc(=O)n(Cc2ccc(Cl)cc2)c2ccccc12 (configuration not stated)
10,880,Cc1c(Cl)cccc1-n1ccn2cc(-c3ccccc3)nc2c1=O
11,890,O=C(Nc1ccccc1C(F)(F)F)c1csc(-c2ccc(N3CCCC3)nc2)n1
12,739,CC(C)C(=O)Nc1nc(-c2ccc3c(c2)NC(=O)CO3)cs1
13,912,Cc1ccc(NC(=O)CN2C(=O)CCCc3cc(S(=O)(=O)N4CCCC4)ccc32)c(Cl)c1
14,812,Cc1cc2c(cc1S(=O)(=O)N1CCCC1C(=O)NCc1ccccc1Cl)OC(C)C(=O)N2 (configuration not stated)
15,991,O=C(c1ccc(OC(F)(F)F)cc1)N1CCN(c2cc(-c3ccc(Cl)cc3)[nH]n2)CC1
16,896,O=C(Cn1nc2c(N3CCc4ccccc4C3)nccn2c1=O)Nc1ccccc1Cl
17,591,Cc1nnc(N2CCCC(C(=O)NCCN3CCCC3)C2)c2nn(-c3ccc(Cl)cc3)c(C)c12 (configuration not stated)

row,RP-LC retention time [s],SMILES
1,854,Cc1ccc(CNC(=O)C2(C)CN(S(C)(=O)=O)CC(=O)N2c2cccc(Cl)c2)cc1 (configuration not stated)
2,705,CN1c2ccccc2C(=O)NC12CCN(C(=O)NCc1ccccc1)CC2
3,891,CC[C@H](C)C(=O)O[C@H]1C[C@H](O)C=C2C=C[C@H](C)[C@H](CC[C@@H]3C[C@@H](O)CC(=O)O3)[C@H]21
4,894,O=C(NCc1nc(-c2ccccc2)no1)c1csc(-n2cccc2)n1
5,548,CC(C)N1CCN(c2ccc3nnc(C4CCC4)n3n2)CC1
6,1110,CCn1cc(-c2ccc(OC)cc2)cc1C(=O)N1CCC(C)CC1
7,757,O=C(NCc1ccccc1C(F)(F)F)c1cn2ccccc2n1
8,654,Cc1cc(C(=O)N2CCC[C@H]2c2nc(-c3ccccc3)n[nH]2)nn1C
9,1040,C=CCn1c(=O)c2ccccc2n(Cc2nc(-c3ccccc3Br)no2)c1=O
10,883,Cc1[nH]c(C(=O)N2CCN(c3cccc(Cl)c3)CC2)c(C)c1S(=O)(=O)N1CCOCC1
11,760,Cc1ccc(S(=O)(=O)N2CCCCC2CCNC(=O)c2cccn(C)c2=O)cc1 (configuration not stated)
12,915,CN1CCCc2cc(C(=O)NCc3cccc(F)c3)sc21
13,862,Cc1ccc(C)c(CNC(=O)CN2CCN(Cc3ccc(F)cc3)C2=O)c1
14,667,O=C(NCC(O)c1ccsc1)C1(c2ccccc2)CCOCC1 (configuration not stated)
15,886,Cc1nc(C)c(C(=O)Nc2nc(-c3ccccc3)cs2)s1
16,678,Cc1cccc(C)c1NC(=O)Cn1cnc2nc(N3CCCC(C(=O)NC4CC4)C3)sc2c1=O (configuration not stated)

# Further lines, the compound ahead of its results:
row,SMILES,RP-LC retention time [s]
1,CCc1nc2cc(N3CCC(C(=O)NC(C)c4ccccn4)CC3)cnc2nc1CC (configuration not stated),628
2,CCn1nc(CNC(=O)c2ccccn2)c2ccccc21,796
3,Cn1c(=O)c(C(=O)N2CCCC2)nc2ccccc21,622
4,CCc1cccc(C)c1NC(=O)Cn1c(=O)n(-c2cccc(C)c2)c(=O)c2c1cc(C)n2C,881
5,Cc1cc(=O)n(CC(=O)Nc2cc(Cl)ccc2C)c(N2CCOCC2)n1,736
6,COc1ccc(C(O)CN2CCN(c3ccc(F)cc3)CC2)cc1OC (configuration not stated),636
7,Cc1sc2nc(SCc3ccc(C(=O)NCCO)cc3)[nH]c(=O)c2c1C,647
8,CC(C)C(=O)NCc1csc(C2CCN(C(=O)C3(c4ccccc4)CC3)CC2)n1,740
9,O=C(Nc1cc(F)ccc1F)c1c(O)c2cccnc2n(Cc2ccccc2)c1=O,1170
10,CCCNC(=O)c1cn(-c2cc(-c3nc(CC)no3)ccn2)cn1,780
11,Cc1ccc(CNC(=O)C2(C)CCCN(S(=O)(=O)c3ccccc3)C2)cc1 (configuration not stated),960
12,O=C(CCSc1ccccc1)NCCOc1ccc2nnc(-c3ccccc3)n2n1,736
13,CCCCS(=O)(=O)N1CCCC(c2nnc(-c3ccc4c(c3)OCO4)o2)C1 (configuration not stated),819
14,Cc1ccc2nc(NC(C)(C)CO)nc(-c3ccccc3)c2c1,644
15,Cc1cccc(-c2ncccc2CNS(=O)(=O)c2cc(F)cc(F)c2)c1,776
16,O=C(NCc1ccc2c(c1)OCO2)c1ccc2c(cnn2CC(=O)N2CCCCCC2)c1,766
17,O=C(Cc1ccsc1)N1C[C@H]2C[C@H](C1)[C@H]1CCCC(=O)N1C2,631
18,Fc1ccccc1-c1nc(-c2cn(-c3ccccc3)nn2)no1,1230
19,CCOc1ccc(N2CC(c3nc(-c4ccccc4C)no3)CC2=O)cc1 (configuration not stated),931
20,CC(C)n1c(=O)sc2cc(S(=O)(=O)N3CCC(C(=O)NC4CCCCCCC4)CC3)ccc21,1040
21,CCOC(=O)C1CCc2sc(NC(=O)Cc3noc4ccccc34)nc21 (configuration not stated),818
22,CCOc1ccnc2c1c(=O)n(CC(=O)Nc1cccc(C(F)(F)F)c1)c(=O)n2C,782
23,O=C(Nc1ccc2c(c1)OCCO2)C1CN(S(=O)(=O)C2CC2)CC12CCCCC2 (configuration not stated),881
24,CCc1ccc(CNC(=O)c2c(C)oc3nc(C)nc(N4CCCC4)c23)cc1,795
25,COc1ccc(-c2nnc(-c3ccc(C)c(S(=O)(=O)Nc4cccnc4)c3)o2)cc1OC,722
26,Cc1cccc(CN2CC(N(C3CCOCC3)S(C)(=O)=O)C2)c1,621
27,O=C(Cc1csc2nc(-c3cccc(Br)c3)cn12)Nc1cccc(F)c1,1010

row,SMILES,RP-LC retention time [s]
1,CCOC(=O)C(=O)Nc1cc(Cl)ccc1C#N,763
2,Cc1ccc(CSc2nc(CC(=O)NCc3cccnc3)cs2)cc1,605
3,O=C(CCS(=O)(=O)c1ccccc1)Nc1nc(-c2ccccc2)cs1,1120
4,O=c1n(Cc2ccccc2F)nc2c(S(=O)(=O)N3CCc4ccccc4C3)cccn12,947
5,CC(C)c1ccc(CNC(=O)CN2CCN(Cc3ccc(F)cc3)C2=O)cc1,933
6,COC(=O)c1ccc(N2C=C(C#N)S(=O)(=O)c3ccc(Cl)cc32)cc1,954
7,CCC1CN2C=NC(N3CCN(C(=O)Nc4ccc(SC)cc4)CC3)=CC2=N1 (configuration not stated),655
8,CCOC(=O)c1c(C)oc2ncnc(NCc3ccc4c(c3)OCO4)c12,1050
9,Cc1ccc(C)c(CNC(=O)CCc2conc2-c2ccc(F)cc2)c1,1010
10,CCOc1ccc(S(=O)(=O)N2CCC(C(=O)Nc3ccc4c(c3)OCCO4)CC2)cc1,903
11,COc1ccccc1N1CCN(C(=O)CCc2nnc3c4cc(-c5ccccc5)nn4ccn23)CC1,763
12,COCCN1C(=O)CC[C@]2(C(=O)NCc3cc(F)ccc3F)CCCC[C@@H]12,724
13,Cc1ccc(CN(C(=O)C(C)Oc2cccc(C)c2C)C2CCS(=O)(=O)C2)o1 (configuration not stated),977
14,Cc1cc(-c2ccc3c(c2)CCN3C(=O)C2CCCO2)on1 (configuration not stated),767
15,CCS(=O)(=O)N1CC(=O)N(c2cc(C)cc(C)c2)C(C)(C(=O)NCc2ccccc2)C1 (configuration not stated),868
16,Cc1cc2nc(C(F)(F)F)c(=O)n(C(C)C(=O)NCCCOC(C)C)c2cc1C (configuration not stated),1140
17,CCOCCCNC(=O)CC1CCN(C(=O)c2[nH]c(C)cc2C)CC1,661
18,O=C(Nc1cc(F)cc(F)c1)c1c(O)c2cccnc2n(-c2ccccc2)c1=O,709
19,Cc1cc(C)cc(C(=O)N2CC3CN(S(=O)(=O)c4ccccc4)CC(C2)O3)c1,892
20,CCOc1ccc(-c2nc(CNC(=O)Nc3cc(OC)ccc3OC)c(C)o2)cc1,963
21,Cn1cnc2c(C(=O)N3CCC(c4ccccc4)C3)nn(-c3ccccc3)c2c1=O (configuration not stated),851
22,COC(=O)c1sccc1NC(=O)Cn1c(C)cc(C)c(-c2nc(-c3ccc(C)cc3)no2)c1=O,1110
23,CC(=O)Nc1ncncc1N1CCC(C(=O)NCc2cccc(C(F)(F)F)c2)CC1,698
24,CC(C)c1noc(-c2cc(=O)n(CC(=O)Nc3ccc4c(c3)OCCO4)c3ccccc23)n1,941
25,Cc1ccccc1CNC(=O)C1(C)CCCN(C(=O)Nc2cc(Cl)ccc2C)C1 (configuration not stated),1090
26,Cc1ccc(CNC(=O)C2CCCN(c3nc4c(s3)c(C)nn4-c3ccc(Cl)cc3)C2)cc1 (configuration not stated),1290
27,CCNC(=O)C1CCN(c2nc3ccc(-c4ccc(OC)cc4)nc3s2)CC1,825
